Experimental data: PMC5712521, “Dendrogenin A drives LXR to trigger lethal autophagy in cancers” (Nature Communications, 2017)

Key:
B16F10 cells = assay: RT-qPCR of LXR-responsive genes; assay type: cell-based, mouse; details: 8 h, 2.5 µM DDA, 10 µM 22(R)HC, 1 µM GW, 100 nM TO, vs vehicle
Procedure: (§1) Total RNA was extracted from tumor cells or MEFs using an RNA Extraction kit (Qiagen) or Trizol (Invitrogen), respectively, and was quantified with NanoDrop. Complementary DNA (cDNA) synthesis was performed with 1 μg RNA iScript Reverse Transcriptase (Bio-Rad). 25 ng cDNA was amplified using SyBR Supermix (Bio-Rad). RNA expression of the different genes of interest (Supplementary Tables 1, 2) were determined using the ΔΔCT method, where the difference in the threshold cycle (ΔCT) values of the target gene and the housekeeping gene for each sample was normalized to the ΔCT value of the untreated sample.
Supplementary Fig. 4. a R egulat ion of LXR-responsive genes b y D DA and other k nown LXR
ligands in B16F10 and SKMEL- 28 cells transfected with s iRN A targeting LXRβ ( siLXRβ) or
with contro l siRN A scram ble (siSC). Cells were treated for 8 h with either solvent vehicle, 2.5
µM DD A, 10 µM 22(R) hydrox ycholesterol (22(R)HC), 1 µM GW 3965 (GW ) or 100 nM
T O901317 (T O). […]

KG1 cells [1] = assay: Immunoblot densitometry; assay type: cell-based, human; details: 5 µM DDA; for LC3-II protein, densitometry relative to control: KG1, 24 h, 2 µM TO, 2 µM GW, 10 µM 22(R)HC
Procedure: Immunoblotting was carried out as described previously. Proteins were separated on SDS-PAGE gels, electro-transferred onto polyvinylidene difluoride membranes and incubated overnight at 4 °C with the following antibodies: anti-Atg3, anti-Atg5 (D1G9), anti-Atg7 (D12B11), anti-Beclin (D40C5), anti-caspase-3 (Cell Signaling), anti-Bcl-2 (Millipore), anti-Bax (Millipore), anti-LC3 (Sigma-Aldrich), anti-LXRα (SantaCruz), anti-LXRβ (SantaCruz), anti-Nur77 (Active motif), anti-NOR1 (R&D systems), anti-PARP (Cell Signaling), anti-Vps34 (Cell Signaling), or anti-Actin (Millipore). For visualization, an ECL plus kit (Amersham Biosciences) was used, and chemiluminescence was measured by autoradiography (Supplementary Fig. 9). Specific bands were quantified with ImageQuant software.
(§2) Supplementary Fig. 6. […]
D ata from b, f, g, h, j, p, q ar e the m eans ± S.E.M. of 3 independent experiments performed in triplicate (*P<0.05, **P<0.01, ***P<0.001, t test). Images are representative of 3 independent experim ents.
Supplementary Fig. 7. a Im munoblots of Nur77 and NOR1 proteins in cells treated or not for 24 h with 5 µM DDA. b Real-time PCR of Nur77 and NOR1 expression in KG1 cells stably transfected with control shRNA (clone shCTRL) or with shRNA against LXRβ (clones sh3LXRβ and sh4LXRβ) and treated with 10 µM DDA for 24 h. c Immunoblots of Nur77 and NOR1 protein expression in KG1 cells stably transfected with control shRNA (clone shCTRL), shRNA against Nur77 (shNur77), shRNA against NOR1 (shNOR1), or shRNAs against both Nur77 and NOR1 (shNur77 + shNOR1). d NOD/SCID mice
(n=16- 20 mice/group) engrafted with KG1 cells or HL60 cells were treated with DDA (20 mg/kg/day, i.p.) or solvent vehicle (control). Tumor growth was monitored over time and was analyzed for significance using repeated measures ANOVA (***P<0.001). The mean tumor volumes ± SEM are shown. e Average tumor weight at the end of the experiments in d. *P<0.5, **P<0.01, ANOVA. f Mean tumor volumes measured at the end of the experiments for HL60 and KG1 graf ted into NOD/SCID or NMRI-Fo x1 -nude mice treated with DDA (40 mg/kg/day, p.o. or 20 mg/kg/day, i.p.) or solvent vehicle (control) (n=10- 20 mice per group). Values represent the means ± S.E.M. (**P<0.01, ***P<0.001, ANOVA). g Histochemical analysis of the expression of LC3 and P62 in HL60 tumor sections isolated from NOD/SCID mice treated or not with DDA (20 mg/kg/day, i.p.). h Quantification of LC3 punctate cells in shCTRL and shLXRβ KG1 tumors. i Quantification of DDA levels in tumors 4 h after the final administration of DDA. j Box plot of TCGA RNA-seq data from patients with melanoma showing that LXRβ is the predominant LXR isoform expressed.
***P<0.001. k, l Immunoblotting of the indicated proteins in primary AML cells exposed to vehicle or 5 µM DDA for 24 h. m, n qPCR analysis of the expression of Nur77 and NOR1 in primary AML cells from 10 patients exposed to vehicle or DDA for 24 h. Bars represent S.E.M. (**P<0.01, ***P<0.001, t test). Data from b, h, i represent means ± S.E.M. of triplicate samples (>100 cell analyses per sample), **P<0.01, ***P<0.001, t test. All data or images are representative of 3 independent experiments.

HL60 cells = assay: qRT-PCR of Nur77 and NOR1; assay type: cell-based, human; details: HL60, 24 h; 5 µM DDA, 2 µM TO, 2 µM GW, 10 µM 22(R)HC
Procedure: as §1, §2
(§3) D ata are expressed relative to the control (solvent vehic le). D ata from b, f, g, h, j, p, q ar e the m eans ± S.E.M. of 3 independent experiments performed in triplicate (*P<0.05, **P<0.01, ***P<0.001, t test). Images are representative of 3 independent experim ents.

KG1 cells [2] = assay: qRT-PCR of Nur77 and NOR1; assay type: cell-based, human; details: KG1, 24 h; 5 µM DDA, 2 µM TO, 2 µM GW, 10 µM 22(R)HC
Procedure: as §1, §2, §3

| SMILES | ABCA1 mRNA (B16F10 cells; B16F10, siCT) [fold] | ABCG1 mRNA (B16F10 cells; B16F10, siCT) [fold] | ABCG5 mRNA (B16F10 cells; B16F10, siCT) [fold] | ABCG8 mRNA (B16F10 cells; B16F10, siCT) [fold] | LC3A mRNA (B16F10 cells; B16F10, siCT) [fold] | LC3B mRNA (B16F10 cells; B16F10, siCT) [fold] | LDLR mRNA (B16F10 cells; B16F10, siCT) [fold] | NOR1 mRNA (B16F10 cells; B16F10, siCT) [fold] | Nur77 mRNA (B16F10 cells; B16F10, siCT) [fold] | SCD1 mRNA (B16F10 cells; B16F10, siCT) [fold] | SREBP1 mRNA (B16F10 cells; B16F10, siCT) [fold] | SULT2b1b mRNA (B16F10 cells; B16F10, siCT) [fold] | ABCA1 mRNA (B16F10 cells; B16F10, siLXRβ) [fold] | ABCG1 mRNA (B16F10 cells; B16F10, siLXRβ) [fold] | ABCG5 mRNA (B16F10 cells; B16F10, siLXRβ) [fold] | ABCG8 mRNA (B16F10 cells; B16F10, siLXRβ) [fold] | LC3A mRNA (B16F10 cells; B16F10, siLXRβ) [fold] | LC3B mRNA (B16F10 cells; B16F10, siLXRβ) [fold] | LDLR mRNA (B16F10 cells; B16F10, siLXRβ) [fold] | NOR1 mRNA (B16F10 cells; B16F10, siLXRβ) [fold] | other results |
| --- | --- | --- | --- | --- | --- | --- | --- | --- | --- | --- | --- | --- | --- | --- | --- | --- | --- | --- | --- | --- | --- |
| CC(C)CC[C@@H](O)[C@@H](C)[C@H]1CC[C@H]2[C@@H]3CC=C4C[C@@H](O)CC[C@]4(C)[C@H]3CC[C@]12C [22(R)HC, 22(R)-hydroxycholesterol] | 12.5±2.5 | 0.7±0.1 | 4.2±0.2 | 1.6±0.2 | 1.3±0.1 | 1.1±0.2 | 0.1±0.1 | 2.2±0.3 | 1.4±0.1 | 1.1±0.2 | 2.2±0.2 | 1.5±0.3 | 4.2 ±0.9 | 1.1±0.1 | 2.0±0.5 | 1.0±0.1 | 1.0±0.3 | 1.0±0.1 | 1.1±0.1 | 0.9±0.2 | Nur77 mRNA (B16F10 cells; B16F10, siLXRβ): 0.8±0.2 fold; SCD1 mRNA (B16F10 cells; B16F10, siLXRβ): 1.2±0.3 fold; SREBP1 mRNA (B16F10 cells; B16F10, siLXRβ): 1.2±0.1 fold; SULT2b1b mRNA (B16F10 cells; B16F10, siLXRβ): 1.1±0.2 fold; LC3-II protein, densitometry relative to control (KG1 cells [1]): 1.5; NOR1 mRNA levels (Fold over control) (HL60 cells): 0.7 fold; Nur77 mRNA levels (Fold over control) (HL60 cells): 0.8 fold; NOR1 mRNA levels (Fold over control) (KG1 cells [2]): 6.3 fold; Nur77 mRNA levels (Fold over control) (KG1 cells [2]): 1.1 fold |
| CC(C)CCC[C@@H](C)[C@H]1CC[C@H]2[C@@H]3C[C@@H](NCCc4cnc[nH]4)[C@@]4(O)C[C@@H](O)CC[C@]4(C)[C@H]3CC[C@]12C [DDA, Dendrogenin A] | 0.4±0.1 | 1.4±0.1 | 3.5±0.1 | 1.6±0.2 | 2.4±0.2 | 1.7±0.1 | 4.2±0.2 | 4.6±0.1 | 6.8±0.2 | 1.6±0.2 | 0.9±0.1 | 1.6±0.1 | 1.2±0.1 | 0.9±0.1 | 1.0±0.1 | 1.2±0.1 | 0.9±0.2 | 1.0±0.2 | 1.0±0.1 | 0.3±0.2 | Nur77 mRNA (B16F10 cells; B16F10, siLXRβ): 0.4±0.1 fold; SCD1 mRNA (B16F10 cells; B16F10, siLXRβ): 0.9±0.2 fold; SREBP1 mRNA (B16F10 cells; B16F10, siLXRβ): 0.9±0.2 fold; SULT2b1b mRNA (B16F10 cells; B16F10, siLXRβ): 0.8±0.1 fold; LC3-II protein, densitometry relative to control (KG1 cells [1]): 8.3; ATG3 protein, densitometry relative to vehicle (KG1 cells [1]; KG1, 24 h): 2.1; ATG5 protein, densitometry relative to vehicle (KG1 cells [1]; KG1, 24 h): 0.9; ATG7 protein, densitometry relative to vehicle (KG1 cells [1]; KG1, 24 h): 1.2; BECN1 protein, densitometry relative to vehicle (KG1 cells [1]; KG1, 24 h): 0.9; NOR1 protein, densitometry relative to untreated (KG1 cells [1]; KG1, 24 h): 3.1; Nur77 protein, densitometry relative to untreated (KG1 cells [1]; KG1, 24 h): 3.4; NOR1 mRNA levels (Fold over control) (HL60 cells): 6.3 fold; Nur77 mRNA levels (Fold over control) (HL60 cells): 11.2 fold; NOR1 mRNA levels (Fold over control) (KG1 cells [2]): 12.2 fold; Nur77 mRNA levels (Fold over control) (KG1 cells [2]): 8.8 fold |
| O=C(O)Cc1cccc(OCCCN(Cc2cccc(C(F)(F)F)c2Cl)CC(c2ccccc2)c2ccccc2)c1 [GW, GW3965] | 14.3±1.6 | 2.1±0.4 | 1.9±0.5 | 1.7±0.2 | 1.1±0.1 | 1.1±0.1 | 2.0±0.1 | 1.6±0.2 | 1.0±0.3 | 1.9±0.2 | 3.1±0.2 | 1.2±0.1 | 2.6±0.1 | 1.1±0.2 | 0.9±0.1 | 0.9±0.1 | 1.1±0.2 | 1.1±0.3 | 1.0±0.2 | 1.0±0.1 | Nur77 mRNA (B16F10 cells; B16F10, siLXRβ): 0.9±0.2 fold; SCD1 mRNA (B16F10 cells; B16F10, siLXRβ): 1.1±0.1 fold; SREBP1 mRNA (B16F10 cells; B16F10, siLXRβ): 1.1±0.2 fold; SULT2b1b mRNA (B16F10 cells; B16F10, siLXRβ): 1.0±0.1 fold; LC3-II protein, densitometry relative to control (KG1 cells [1]): 0.8; NOR1 mRNA levels (Fold over control) (HL60 cells): 0.3 fold; Nur77 mRNA levels (Fold over control) (HL60 cells): 1.3 fold; NOR1 mRNA levels (Fold over control) (KG1 cells [2]): 1.8 fold; Nur77 mRNA levels (Fold over control) (KG1 cells [2]): 0.8 fold |
| O=S(=O)(c1ccccc1)N(CC(F)(F)F)c1ccc(C(O)(C(F)(F)F)C(F)(F)F)cc1 [TO, TO901317] | 8.5±1.8 | 1.1±0.3 | 3.6±0.6 | 1.5±0.1 | 1.0±0.3 | 1.3±0.1 | 1.7±0.1 | 1.9±0.2 | 0.9±0.3 | 1.6±0.2 | 3.3±0.1 | 3.2±0.2 | 2.0±0.4 | 1.0±0.1 | 1.0±0.2 | 1.1±0.2 | 1.0±0.2 | 1.2±0.3 | 1.0±0.2 | 0.7±0.3 | Nur77 mRNA (B16F10 cells; B16F10, siLXRβ): 0.6±0.2 fold; SCD1 mRNA (B16F10 cells; B16F10, siLXRβ): 0.9±0.1 fold; SREBP1 mRNA (B16F10 cells; B16F10, siLXRβ): 0.9±0.2 fold; SULT2b1b mRNA (B16F10 cells; B16F10, siLXRβ): 1.2±0.3 fold; LC3-II protein, densitometry relative to control (KG1 cells [1]): 1.0; NOR1 mRNA levels (Fold over control) (HL60 cells): 2.7 fold; Nur77 mRNA levels (Fold over control) (HL60 cells): 0.4 fold; NOR1 mRNA levels (Fold over control) (KG1 cells [2]): 1.1 fold; Nur77 mRNA levels (Fold over control) (KG1 cells [2]): 1.5 fold |
